Data as given in ChEMBL document CHEMBL3885861, “Open TG-GATES”.

Species: Rattus norvegicus
Assay: Open TG-GATES - Regimen: Daily Repeat
Assay type: toxicity, organism-based, Sprague-Dawley
Design: regimen Daily Repeat, gender Male, age 6 weeks
Settings: in vivo, po, 0 mg/kg, route gavage, dose level Control; for APTT / Bas / Eos / Fbg / Hb / Ht / Lym / MCH / MCHC / MCV / Mono / Neu / PT / Plat / RBC / Ret / WBC: tissue Blood; for KIDNEY_L / KIDNEY_R / KIDNEY_TOTAL: tissue Kidney; for LIVER: tissue Liver; for A/G / ALP / ALT / AST / BUN / CRE / Ca / Cl / DBIL / GLC / IP / K / LDH / Na / PL / RALB / TBIL / TC / TG / TP / gamma-GTP: tissue Plasma

COc1ccc2c(c1)c(CC(=O)O)c(C)n2C(=O)c1ccc(Cl)cc1 [INDOMETHACIN]
TERMINAL_BW (72 h, time 3 day): 239.9 g | APTT (72 h, time 3 day): 17 s | Bas (72 h, time 3 day): 0% | Eos (72 h, time 3 day): 0.8% | Fbg (72 h, time 3 day): 211.8 mg/dL | Hb (72 h, time 3 day): 13.4 g/dL | Ht (72 h, time 3 day): 40.3% | Lym (72 h, time 3 day): 81.4% | MCH (72 h, time 3 day): 21.4 pg | MCHC (72 h, time 3 day): 33.1% | MCV (72 h, time 3 day): 64.6 fL | Mono (72 h, time 3 day): 8% | Neu (72 h, time 3 day): 10.2% | PT (72 h, time 3 day): 11.2 s | Plat (72 h, time 3 day): 122 x10_4/uL | RBC (72 h, time 3 day): 625.2 x10_4/ul | Ret (72 h, time 3 day): 7.6% | WBC (72 h, time 3 day): 117.2 x10_2/uL | KIDNEY_L (72 h, time 3 day): 1 g | KIDNEY_R (72 h, time 3 day): 1.1 g | KIDNEY_TOTAL (72 h, time 3 day): 2.1 g | LIVER (72 h, time 3 day): 11.9 g | A/G (72 h, time 3 day): 2.1 | ALP (72 h, time 3 day): 1154.8 IU/L | ALT (72 h, time 3 day): 33.2 IU/L | AST (72 h, time 3 day): 60 IU/L | BUN (72 h, time 3 day): 15.4 mg/dL | CRE (72 h, time 3 day): 0.6 mg/dL | Ca (72 h, time 3 day): 10.5 mg/dL | Cl (72 h, time 3 day): 107 meq/L | DBIL (72 h, time 3 day): 0.032 mg/dL | GLC (72 h, time 3 day): 201.8 mg/dL | IP (72 h, time 3 day): 7.4 mg/dL | K (72 h, time 3 day): 4.8 meq/L | LDH (72 h, time 3 day): 95.2 IU/L | Na (72 h, time 3 day): 139.6 meq/L | PL (72 h, time 3 day): 144.4 mg/dL | RALB (72 h, time 3 day): 3.9 g/dL | TBIL (72 h, time 3 day): 0.4 mg/dL | TC (72 h, time 3 day): 74.2 mg/dL | TG (72 h, time 3 day): 86.8 mg/dL | TP (72 h, time 3 day): 5.7 g/dL | gamma-GTP (72 h, time 3 day): 1 IU/L | TERMINAL_BW ([…], time 7 day): 269.3 g | TERMINAL_BW ([…], time 14 day): 339.4 g | TERMINAL_BW ([…], time 28 day): 433.9 g | APTT ([…], time 7 day): 16.5 s | Bas ([…], time 7 day): 0% | Eos ([…], time 7 day): 1% | Fbg ([…], time 7 day): 223.6 mg/dL | Hb ([…], time 7 day): 14.1 g/dL | Ht ([…], time 7 day): 42.4% | Lym ([…], time 7 day): 82% | MCH ([…], time 7 day): 20.9 pg | MCHC ([…], time 7 day): 33.3% | MCV ([…], time 7 day): 62.8 fL | Mono ([…], time 7 day): 6.8% | Neu ([…], time 7 day): 10% | PT ([…], time 7 day): 11.8 s | Plat ([…], time 7 day): 106.3 x10_4/uL | RBC ([…], time 7 day): 675 x10_4/ul | Ret ([…], time 7 day): 5.7% | WBC ([…], time 7 day): 126.2 x10_2/uL | APTT ([…], time 14 day): 16.7 s | Bas ([…], time 14 day): 0% | Eos ([…], time 14 day): 0.6% | Fbg ([…], time 14 day): 228.8 mg/dL | Hb ([…], time 14 day): 13.9 g/dL | Ht ([…], time 14 day): 41.7% | Lym ([…], time 14 day): 84.2% | MCH ([…], time 14 day): 20.1 pg | MCHC ([…], time 14 day): 33.4% | MCV ([…], time 14 day): 60.3 fL | Mono ([…], time 14 day): 5% | Neu ([…], time 14 day): 10.4% | PT ([…], time 14 day): 11.8 s | Plat ([…], time 14 day): 110.6 x10_4/uL | RBC ([…], time 14 day): 691.2 x10_4/ul | Ret ([…], time 14 day): 5.1% | WBC ([…], time 14 day): 148.4 x10_2/uL | APTT ([…], time 28 day): 15.3 s | Bas ([…], time 28 day): 0% | Eos ([…], time 28 day): 0.8% | Fbg ([…], time 28 day): 256.8 mg/dL | Hb ([…], time 28 day): 14.6 g/dL | Ht ([…], time 28 day): 44.4% | Lym ([…], time 28 day): 86.8% | MCH ([…], time 28 day): 18.5 pg | MCHC ([…], time 28 day): 32.9% | MCV ([…], time 28 day): 56.1 fL | Mono ([…], time 28 day): 4.4% | Neu ([…], time 28 day): 7.8% | PT ([…], time 28 day): 11.8 s | Plat ([…], time 28 day): 112.3 x10_4/uL | RBC ([…], time 28 day): 792.2 x10_4/ul | Ret ([…], time 28 day): 3.2% | WBC ([…], time 28 day): 153.4 x10_2/uL | KIDNEY_L ([…], time 7 day): 1.2 g | KIDNEY_R ([…], time 7 day): 1.2 g | KIDNEY_TOTAL ([…], time 7 day): 2.4 g | KIDNEY_L ([…], time 14 day): 1.3 g | KIDNEY_R ([…], time 14 day): 1.3 g | KIDNEY_TOTAL ([…], time 14 day): 2.6 g | KIDNEY_L ([…], time 28 day): 1.5 g | KIDNEY_R ([…], time 28 day): 1.5 g | KIDNEY_TOTAL ([…], time 28 day): 3 g | LIVER ([…], time 7 day): 13.2 g | LIVER ([…], time 14 day): 16 g | LIVER ([…], time 28 day): 19.6 g | A/G ([…], time 7 day): 2 | ALP ([…], time 7 day): 925.4 IU/L | ALT ([…], time 7 day): 33 IU/L | AST ([…], time 7 day): 63.2 IU/L | BUN ([…], time 7 day): 18.4 mg/dL | CRE ([…], time 7 day): 0.5 mg/dL | Ca ([…], time 7 day): 10.7 mg/dL | Cl ([…], time 7 day): 106.8 meq/L | DBIL ([…], time 7 day): 0.012 mg/dL | GLC ([…], time 7 day): 202.2 mg/dL | IP ([…], time 7 day): 8.3 mg/dL | K ([…], time 7 day): 5 meq/L | LDH ([…], time 7 day): 97.4 IU/L | Na ([…], time 7 day): 139 meq/L | PL ([…], time 7 day): 144.8 mg/dL | RALB ([…], time 7 day): 4 g/dL | TBIL ([…], time 7 day): 0.3 mg/dL | TC ([…], time 7 day): 69.2 mg/dL | TG ([…], time 7 day): 126.8 mg/dL | TP ([…], time 7 day): 6.1 g/dL | gamma-GTP ([…], time 7 day): 0.6 IU/L | A/G ([…], time 14 day): 1.8 | ALP ([…], time 14 day): 780.8 IU/L | ALT ([…], time 14 day): 30.6 IU/L | AST ([…], time 14 day): 60.6 IU/L | BUN ([…], time 14 day): 19.8 mg/dL | CRE ([…], time 14 day): 0.6 mg/dL | Ca ([…], time 14 day): 10.4 mg/dL | Cl ([…], time 14 day): 105.6 meq/L | DBIL ([…], time 14 day): 0.012 mg/dL | GLC ([…], time 14 day): 201.2 mg/dL | IP ([…], time 14 day): 8.5 mg/dL | K ([…], time 14 day): 4.8 meq/L | LDH ([…], time 14 day): 82.6 IU/L | Na ([…], time 14 day): 138.2 meq/L | PL ([…], time 14 day): 147.6 mg/dL | RALB ([…], time 14 day): 3.9 g/dL | TBIL ([…], time 14 day): 0.3 mg/dL | TC ([…], time 14 day): 72.4 mg/dL | TG ([…], time 14 day): 130.4 mg/dL | TP ([…], time 14 day): 6.2 g/dL | gamma-GTP ([…], time 14 day): 1.6 IU/L
